Measured values as given in US7635779B2, “Oxy substituted flavones as antihyperglycemic and antidyslipidemic agents” (Council of Scientific & Industrial Research, priority 2004, dated 2009).
Where two headings read alike, the source gives them in different places. Marks after values point to notes of the source that are not given here.

Key:
[1] = tested on: triton WR-1339 induced hyperlipidemic rats; test: Triton model, antidyslipidemic activity; assay type: in vivo, rat; conditions: 100 mg/kg oral, plasma after 18 h; for inhibition in vivo at 100 mg/kg: Rattus norvegicus
Protocol: Male Charles foster rats weighing 200-225 g were divided into control, hyperlipidemic and hyperlipidemic plus drug treated groups containing six animals in each group. Hyperlipidemia was induced by administration of triton WR-1339 (200 mg/kg i.p.). All animals were maintained on a special pellet diet and water ad libitum. Compounds and standard drug were macerated with 0.2% aqueous gum acacia suspension. The suspension was fed orally at the dose of 100 mg/kg simultaneously with triton in drug treated group. The animals of control group received the same amount of gum acacia by similar route of administration. At the end of the experiment, after 18 h, blood was withdrawn from retro orbital plexus and plasma was used for the assay of total cholesterol, phospholipid and triglycerides.
Cholesterol was estimated using the kit provided by Roche Diagnostics. Cholesterol esters are enzymatically hydrolyzed by cholesterol esterase (CE) to cholesterol and free fatty acids. Free cholesterol, including that originally present, is then oxidized by cholesterol oxidase (CO) to cholest-4-en-3-one and hydrogen peroxide. The hydrogen peroxide combines with hydroxy benzoic acid (HBA) and 4-aminoantipyrine (4AAA) in the presence of peroxidase (POD) to form a chromophore (quinoneimine dye), which may be quantitated at 500-505 nm. The intensity of red colour formed is directly proportional to the concentration of total cholesterol in the specimen and measured spectrophotometrically (Searcy, C. L. Diagnostic Biochemistry, 1969, McGraw Hill, New York; Ellefson, R. D.; Caraway, W. T. Fundamentals of clinical chemistry, 1976, Ed Tietz N W, 506-515.)
Triglycerides were estimated using the kit provided by Roche Diagnostics. Lipoprotein lipase hydrolyses triglycerides to yield glycerol and fatty acids. Glycerol kinase converts glycerol to glycerol-3-phosphate, which is oxidized by glycerol phosphate oxidase to dihydroxy acetone phosphate and hydrogen peroxide. In the presence of peroxidase, hydrogen peroxide oxidatively couples with 4-aminoantipyrine and 4-chloro phenol to produce red quinonimine dye. The intensity of red colour formed is directly proportional to the concentration of triglycerides in the specimen and is measured by photometrically (Wahlefeld, A. W.; Bergmeyer, H. U. Ed. Methods of enzymatic analysis, 2nd English edition, New York, N.Y., Academic press inc, 1831-1840.).
Serum (0.2 mL) and perchloric acid (1.0 mL) was digested at 180° C. for 1-1.5 h till the solution became colorless. The liberated inorganic phosphate (Pi) was measured by the method of Fiske and Subbarow (Fiske, C. H.; Subbarow, V. J. Biol. Chem. 1925, 66, 375.). 1 mL of 2.5% ammonium molybdate (prepared in 5 N sulphuric acid) and 0.5 mL reducing agent (4-amino naphthol sulphonic acid, 0.2%), sodium metabisulphite (2.4% w/v in distilled water) was added to the above tubes and mixed well. The reaction mixture was […] with 2.5 mL of triple distilled water and kept at 60° C. in water bath for 20 min. For standard, an appropriate amount of potassium dihydrogen phosphate dissolved in triple distilled water containing 2-10 μg phosphorous (Pi) was run simultaneously with the experiment tubes. The optical density of the blue colour was recorded at 620 nm against reagent blank. The values of Pi were converted into phospholipid by multiplying with 25 (a constant calibrated from Pi value of lecithin).

[2] = tested on: streptozotocin-induced diabetic rats; test: Sucrose-challenged streptozotocin-induced diabetic rats (STZ-S); assay type: in vivo, rat; conditions: for % Fall in blood glucose levels, STZ-S 5 h / % Fall in blood glucose levels, STZ-S 24 h: 100 mg/kg oral
Protocol: Male albino rats of Sprague Dawley strain of body weight 160+20 g were selected for this study. Streptozotocin (Sigma, USA) was dissolved in 100 mM citrate buffer pH 4.5 and calculated amount of the fresh solution was injected to overnight fasted rats (45 mg/kg) intraperitoneally. Blood glucose level was checked 48 h later by glucostrips and animals showing blood glucose values between 144 to 270 mg/dl (8 to 15 mM) were included in the experiment and termed diabetic. The diabetic animals were divided into groups consisting of five to six animals in each group. Animals of experimental groups were administered suspension of the desired test samples orally (made in 1.0% gum acacia) at a dose of 100-mg/kg-body weight. Animals of control group were given an equal amount of 1.0% gum acacia. A sucrose load of 2.5-g/kg body weight was given after 30 minutes of compound administration. After 30 minutes of post sucrose load blood glucose level was again checked by glucostrips at 30, 60, 90, 120, 180, 240, 300 min and at 24 h, respectively. Animals not found diabetic after 24 hours post treatment of the test sample were not considered and omitted from the calculations and termed as non-responders. […] Food but not water was withheld from the cages during the experimentation. Comparing the AUC of experimental and control groups determined the percent antihyperglycemic activity. Statistical comparison between groups was made by Student's ‘t’ test.
As depicted in the FIGURE, a dose response curve of 34 was obtained by administering different doses of test compound to streptozotocin-induced diabetic rats (Table 6). […]

[3] = tested on: sucrose loaded rat; test: Sucrose loaded rat model (SLM), antihyperglycemic activity; assay type: in vivo; conditions: for inhibition in vivo at 100 mg/kg: Rattus norvegicus, po, 2 h, read-out: % Fall in blood glucose levels, SLM
Protocol: Male albino rats of Charles Foster/Wistar strain of average body weight 160±20 g were selected for this study. The blood glucose level of each animal was checked by glucometer using glucostrips (Boehringer Mannheim) after 16 h starvation. Animals showing blood glucose levels between 3.33 to 4.44 mM (60 to 80 mg/dl) were divided into groups of five to six animals in each. Animals of experimental group were administered suspension of the desired synthetic compound orally (made in 1.0% gum acacia) at a dose of 100-mg/kg-body weight. Animals of control group were given an equal amount of 1.0% gum acacia. A sucrose load (10.0 g/kg) was given to each animal orally exactly after 30 min post administration of the test sample/vehicle. Blood glucose profile of each rat was again determined at 30, 60, 90 and 120 min post administration of sucrose by glucometer. Food but not water was withheld from the cages during the course of experimentation. Quantitative glucose tolerance of each animal was calculated by Area Under Curve (AUC) method (Prism Software). Comparing the AUC of experimental and control groups determined the percentage antihyperglycemic activity. Statistical comparison was made by Dunnett's test.

[4] = phospholipid, read-out: % Fall in lipid levels (Triton model) PL
[5] = total cholesterol, read-out: % Fall in lipid levels (Triton model) TC
[6] = triglycerides, read-out: % Fall in lipid levels (Triton model) TG

`CC(C)NCC(O)COc1ccc2c(=O)cc(-c3cc(O)cc(O)c3)oc2c1` (centres unmarked) [Compound 49, 3′,5′-Dihydroxy-7-(2-hydroxy-3-iso-propylamino-propoxy)-flavone] showed an inhibition in vivo at 100 mg/kg [1, 4] of 28%, an inhibition in vivo at 100 mg/kg [1, 5] of 32% and an inhibition in vivo at 100 mg/kg [1, 6] of 32%. For the same compound, the “% Fall in blood glucose levels, STZ-S 5 h” value (from here on “% Fall … STZ-S 5 h”) [2] was 26.9** %, the “% Fall in blood glucose levels, STZ-S 24 h” value (“% Fall … STZ-S 24 h” for short) [2] was 13.2* % and the inhibition in vivo at 100 mg/kg [3] was 29%.

For `COc1cc(-c2cc(=O)c3ccc(OCCCOc4ccc(C=C5SC(=O)NC5=O)cc4)cc3o2)cc(OC)c1OC` [Compound 65, 7-{3-[4-(thiazolidin-2,4-dione-5-ylidinemethyl)-phenoxy]-propoxy}-3′,4′,5′-trimethoxy-flavone], the “% Fall in lipid levels (Triton model) PL” value ([1]; phospholipid) was 6%, the “% Fall in lipid levels (Triton model) TC” value ([1]; total cholesterol) was 20% and the “% Fall in lipid levels (Triton model) TG” value ([1]; triglycerides) was 3%. The “% Fall … STZ-S 5 h” value [2] was 16.1%, the “% Fall … STZ-S 24 h” value [2] was 11.0% and the “% Fall in blood glucose levels, SLM” value ([3]; 100 mg/kg oral, AUC vs control) was 29.30%. The “Antihyperglycemic (glucose lowering) activity in words” value ([3]; SLM as well as STZ model) was “significant and consistent glucose lowering activity”.

`CC(C)(C)NCC(O)COc1ccc2c(=O)cc(-c3cc(OCc4ccccc4)cc(OCc4ccccc4)c3)oc2c1` (centres unmarked) [Compound 34, 7-(3-tert-Butylamino-2-hydroxy-propoxy)-3′,5′-dibenzyloxy-flavone] was tested, and the inhibition in vivo at 100 mg/kg [1, 4] was 18%, the inhibition in vivo at 100 mg/kg [1, 5] was 21% and the inhibition in vivo at 100 mg/kg [1, 6] was 9%. The “% Fall … STZ-S 5 h” value [2] was 21.6** %, the “% Fall … STZ-S 24 h” value [2] was 28.7** % and the “% Fall in blood glucose levels 5 h” value ([2]; Dose 25, 5 h) was 11.1%. The “% Fall in blood glucose levels 24 h” value ([2]; Dose 25, 24 h) was 13.6%, the “% Fall in blood glucose levels 5 h” value ([2]; Dose 50, 5 h) was 9.62% and the “% Fall in blood glucose levels 24 h” value ([2]; Dose 50, 24 h) was 13.8%. For the same compound, the “% Fall in blood glucose levels 5 h” value ([2]; Dose 100, 5 h) was 19.8%, the “% Fall in blood glucose levels 24 h” value ([2]; Dose 100, 24 h) was 21.9% and the “% Fall in blood glucose levels 5 h” value ([2]; Dose 150, 5 h) was 24.3%. The “% Fall in blood glucose levels 24 h” value ([2]; Dose 150, 24 h) was 30.5%, the “% Fall in blood glucose levels 5 h” value ([2]; Dose 200, 5 h) was 38.1% and the “% Fall in blood glucose levels 24 h” value ([2]; Dose 200, 24 h) was 37.0%. The “% Fall in blood glucose levels 5 h” value ([2]; Dose 250, 5 h) was 40.7%, the “% Fall in blood glucose levels 24 h” value ([2]; Dose 250, 24 h) was 45.5% and the ED50 ([2]; Rattus norvegicus, STZ-S model, dose response) was 90 mg/kg. It also gave an inhibition in vivo at 100 mg/kg [3] of 29.4%.
